This note sets out measurements from patent US9434711B2 (Janssen Pharmaceutica, NV, priority 2007, dated 2016).

Broadly, the IC50 is the point on the concentration scale where inhibition reaches its midpoint. By % Inhibition is commonly meant the share of the control response that was lost under treatment.

For assay [1], the target named is canine TRPM8 (Canis lupus familiaris, UniProt Q1A7N1). Kind of assay: In Vitro Canine TRPM8 Functional Assay (Ca2+ fluorescence, icilin activation). It counts as cell-based. The conditions noted are these: for IC50: HEK293 cells stably expressing canine TRPM8, icilin activation, eight-point dose-response, read-out: IC50; for inhibition at 0.5 µM: compound at 0.5 μM, read-out: % Inh @ 0.5; for inhibition at 0.2 µM: read-out: % Inh @ 0.2. The essentials: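 HEK293 cells stably expressing canine TRPM8 loaded with Calcium 3 dye; compound added and Ca2+ fluorescence monitored 5 min before icilin at a final level giving ~80% maximal response, read on FLIPR or FDSS. EC50 or IC50 from eight-point dose-response, quadruplicate wells per point.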

For assay [2], the system named is Male Sprague Dawley rats. Kind of assay: Reversal of Icilin-Induced Behaviors in Rats. The conditions noted are these: Rattus norvegicus, po, 1 h, 1 h post-icilin; for inhibition in vivo at 30 mg/kg: 30 mg/kg p.o. It counts as in vivo. The protocol:
Male Sprague Dawley rats (225-450 g, Charles River Labs, n=4-6/treatment) were used to evaluate the ability of selected compounds of the formula (I) to reverse icilin-induced “wet-dog” shakes. Icilin was administered in PEG-400 or 10% solutol/H2O, at 1.0 or 3.0 mg/kg, i.p. and spontaneous “wet-dog” shakes (WDS) were counted 10-20 minutes post-icilin. […] Results are presented as a percent inhibition of shakes, which was calculated as [1-(test compound WDS count/vehicle WDS count)]×100.

For assay [3], the system named is Male Sprague Dawley rats. Kind of assay: Chronic Constriction Injury (CCI)-Induced Model of Neuropathic Pain, Acetone-Induced Hypersensitivity. Format: in vivo, rat. The text has this:
Male Sprague Dawley rats (225-450 g; n=5-8/treatment) were used to evaluate the ability of selected compounds of the formula (I) to reverse CCI-induced cold hypersensitivity. Four loose ligatures of 4-0 chromic gut were surgically placed around the left sciatic nerve under inhalation anesthesia as described by Bennett et al (Bennett G J, Xie Y K. Pain 1988, 33(1): 87-107). Fourteen to 35 days following CCI surgery, subjects were placed in elevated observation chambers containing wire mesh floors and five applications of acetone (0.05 mL/application separated by approximately 5 minutes) were spritzed onto the plantar surface of the paw using a multidose syringe. An abrupt withdrawal or lifting of the paw was considered a positive response. The number of positive responses was recorded for each rat over the five trials. Following baseline withdrawal determinations, compounds of formula (I) are administered in an appropriate vehicle, such as hydroxypropyl-β-cyclodextrin (HP β CD), methylcellulose, Methocel, 10% Solutol, or H2O, or the like, by the appropriate route, i.p. or p.o. […] Results are presented as a percent inhibition of […], which was calculated for each subject as [1−(test compound withdrawals/pre-test withdrawals)]×100 and then averaged by treatment.

Assay [4] deals with Male Sprague Dawley rats. Kind of assay: Inhibition of Icilin-Induced "Wet-Dog" Shakes in Rats. Format: in vivo, rat. Particulars: dose 30 p.o., HPbCD, 60 min pre-icilin, Na salt form. The protocol:
Male Sprague Dawley rats (220-450 g, Charles River Labs, n=6-9/treatment) were used to evaluate the ability of selected compounds of the formula (I) to block icilin-induced “wet-dog” shakes (WDS). Compounds of the formula (I) were administered in an appropriate vehicle, such as hydroxypropyl-β-cyclodextrin (HPβCD), methocellulose, 10% Solutol, or H2O, or the like, by the appropriate route, i.p. or p.o., 30-120 minutes before icilin. Icilin was administered in PEG-400 or 10% solutol/H2O, at 1.0 or 3.0 mg/kg, i.p. and spontaneous “wet-dog” shakes were counted 10-20 minutes post-icilin. Results are presented as a percent inhibition of shakes, which was calculated as [1-(test compound WDS count/vehicle WDS count)]×100.

Setting [5] is: canine TRPM8, icilin activation.
Setting [6] is: Rattus norvegicus, po, 1 h, 30 mg/kg p.o., 10% Solutol, pretreatment 1 hr, CO2H form, read-out: Percent Inhibition.
[7] abbreviates: compound at 0.2 μM, canine TRPM8, icilin activation.

canine TRPM8, sequence (Q1A7N1 1-1104): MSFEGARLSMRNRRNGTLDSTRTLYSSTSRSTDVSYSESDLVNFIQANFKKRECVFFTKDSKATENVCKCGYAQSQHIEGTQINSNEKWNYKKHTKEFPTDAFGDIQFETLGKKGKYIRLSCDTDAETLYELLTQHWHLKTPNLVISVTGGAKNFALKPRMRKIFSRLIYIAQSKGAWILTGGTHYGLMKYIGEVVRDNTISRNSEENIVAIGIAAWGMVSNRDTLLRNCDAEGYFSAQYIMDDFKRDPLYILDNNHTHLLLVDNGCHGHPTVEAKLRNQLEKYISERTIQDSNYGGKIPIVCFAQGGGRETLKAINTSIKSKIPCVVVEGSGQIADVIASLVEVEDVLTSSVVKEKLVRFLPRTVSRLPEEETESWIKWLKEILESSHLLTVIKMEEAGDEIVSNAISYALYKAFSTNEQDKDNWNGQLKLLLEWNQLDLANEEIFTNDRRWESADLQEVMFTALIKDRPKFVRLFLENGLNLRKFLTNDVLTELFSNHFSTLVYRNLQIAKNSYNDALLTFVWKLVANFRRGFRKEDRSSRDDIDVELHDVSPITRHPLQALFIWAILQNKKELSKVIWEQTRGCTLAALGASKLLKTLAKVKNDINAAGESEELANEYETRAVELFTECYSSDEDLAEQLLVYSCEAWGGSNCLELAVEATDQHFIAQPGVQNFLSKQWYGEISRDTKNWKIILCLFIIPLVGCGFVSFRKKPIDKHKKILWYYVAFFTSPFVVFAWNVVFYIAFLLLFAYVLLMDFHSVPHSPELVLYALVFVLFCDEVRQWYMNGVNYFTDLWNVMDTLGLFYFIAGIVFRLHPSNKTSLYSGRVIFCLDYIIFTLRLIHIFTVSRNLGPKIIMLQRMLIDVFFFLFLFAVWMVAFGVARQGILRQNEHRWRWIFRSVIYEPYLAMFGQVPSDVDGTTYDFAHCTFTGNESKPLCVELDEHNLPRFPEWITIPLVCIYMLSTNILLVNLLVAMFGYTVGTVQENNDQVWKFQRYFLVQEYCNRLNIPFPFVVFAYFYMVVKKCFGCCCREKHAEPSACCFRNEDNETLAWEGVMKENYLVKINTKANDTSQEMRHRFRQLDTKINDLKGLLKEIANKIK

As for `Cc1c(N(Cc2ccc(F)c(F)c2)S(=O)(=O)c2cn(C)cn2)sc2ccccc12` [Compound 2, N-(3,4-Difluoro-benzyl)-N-(3-methyl-benzo[b]thiophen-2-yl)-1-methyl-1H-imidazole-4-sulfonamide], in assay [1], the 50% inhibitory concentration (IC50) stood at 16.3 nM. For the same compound, the inhibition at 0.5 µM in assay [1] (setting [5]) worked out at 99%. Further, the inhibition in vivo at 30 mg/kg in assay [2] stood at 18%.

As for `O=S(=O)(c1ccccc1)N(Cc1ccc(F)c(C(F)(F)F)c1)c1sc2ccccc2c1Cl` [Compound 7, N-(3-Chloro-benzo[b]thiophen-2-yl)-N-(4-fluoro-3-trifluoromethyl-benzyl)-benzenesulfonamide], the half-inhibitory concentration (IC50) in assay [1] worked out at 7.3 nM. Also, the inhibition at 0.5 µM in assay [1] (setting [5]) was found to be 97%. Further, the inhibition in vivo at 30 mg/kg in assay [2] was 65%; in assay [3] (Rattus norvegicus, ip, 2 h, 30 mg/kg i.p., 10% Solutol, pretreatment 2 hr, CO2H form, read-out: Percent Inhibition), 66%; in assay [3] (setting [6]), 47%.

For the compound `Cc1c(N(Cc2ccc(OC(F)(F)F)cc2)S(=O)(=O)c2cccnc2)sc2ccccc12` [Compound 13, N-(3-Methyl-benzo[b]thiophen-2-yl)-N-(4-trifluoromethoxy-benzyl)-pyridine-3-sulfonamide], the IC50 in assay [1] stood at 3 nM. The inhibition at 0.5 µM in assay [1] (setting [5]) worked out at 97%. The inhibition in vivo at 30 mg/kg in assay [2] was 28%.

Consider `Cc1c(N(Cc2cccc3cccnc23)S(=O)(=O)c2cccnc2)sc2ccccc12` [Compound 14, N-(3-Methyl-benzo[b]thiophen-2-yl)-N-(quinolin-8-ylmethyl)-pyridine-3-sulfonamide], for which the IC50 in assay [1] was 18.9 nM. The inhibition at 0.5 µM in assay [1] (setting [5]) is 99%. Further, in assay [2], the inhibition in vivo at 30 mg/kg is -16%.

For `Cc1c(N(Cc2ccc(F)c(F)c2)S(=O)(=O)c2ccccc2)sc2ccccc12` [Compound 125, N-(3,4-Difluoro-benzyl)-N-(3-methyl-benzo[b]thiophen-2-yl)-benzenesulfonamide], the concentration for half-maximal inhibition (IC50) in assay [1] was determined as 5 nM. Moreover, the inhibition at 0.5 µM in assay [1] (setting [5]) was found to be 99%. Also, the inhibition in vivo at 30 mg/kg in assay [2] is 39%.

Consider `O=S(=O)(c1ccccc1)N(Cc1ccc(F)c(F)c1)c1sc2ccccc2c1Br` [Compound 148, N-(3-Bromo-benzo[b]thiophen-2-yl)-N-(3,4-difluoro-benzyl)-benzenesulfonamide], for which the IC50 in assay [1] was found to be 2.1 nM. For the same compound, the inhibition at 0.5 µM in assay [1] (setting [5]) is 98%. For the same compound, the inhibition in vivo at 30 mg/kg in assay [2] stood at 33%.

Consider `O=S(=O)(c1cccnc1)N(Cc1ccc(F)c(F)c1)c1sc2ccccc2c1Br` [Compound 149, N-(3-Bromo-benzo[b]thiophen-2-yl)-N-(3,4-difluoro-benzyl)-pyridin-3-yl-sulfonamide], for which the IC50 in assay [1] came to 7.1 nM. The inhibition at 0.2 µM in assay [1] (setting [7]) turned out to be 102%. Besides, the inhibition at 0.5 µM in assay [1] (setting [5]) stood at 101%. Further, the inhibition in vivo at 30 mg/kg in assay [2] is -3%.

As for `O=S(=O)(c1ccccc1)N(Cc1ccccn1)c1sc2ccccc2c1Br` [Compound 168, N-(3-Bromo-benzo[b]thiophen-2-yl)-N-(pyridin-2-ylmethyl)-benzenesulfonamide], in assay [1], the concentration for half-maximal inhibition (IC50) came to 14.2 nM. The inhibition at 0.5 µM in assay [1] (setting [5]) is 96%. For the same compound, the inhibition in vivo at 30 mg/kg in assay [2] was -29%.

In the case of `O=S(=O)(c1ccccc1)N(Cc1ccc(OC(F)(F)F)cc1)c1sc2ccccc2c1Br` [Compound 174, N-(3-Bromo-benzo[b]thiophen-2-yl)-N-(4-trifluoromethoxy-benzyl)-benzenesulfonamide], the IC50 in assay [1] came out at 2.5 nM. In addition, the inhibition at 0.5 µM in assay [1] (setting [5]) turned out to be 99%. Besides, the inhibition in vivo at 30 mg/kg in assay [2] was determined as 45%.

For `O=S(=O)(c1ccccc1)N(Cc1ccc(F)c(C(F)(F)F)c1)c1sc2ccccc2c1Br` [Compound 177, N-(3-Bromo-benzo[b]thiophen-2-yl)-N-(4-fluoro-3-trifluoromethyl-benzyl)-benzenesulfonamide], in assay [1], the IC50 turned out to be 5.7 nM. Besides, the inhibition at 0.5 µM in assay [1] (setting [5]) is 96%. The inhibition in vivo at 3 mg/kg in assay [2] (3 mg/kg p.o.) amounted to 15%; in assay [3] (Rattus norvegicus, po, 1 h, 3 mg/kg p.o., 10% Solutol, pretreatment 1 hr, CO2H form, read-out: Percent Inhibition), 23%. For the same compound, the inhibition in vivo at 10 mg/kg in assay [2] (10 mg/kg p.o.) worked out at 53%; in assay [3] (Rattus norvegicus, po, 1 h, 10 mg/kg p.o., 10% Solutol, pretreatment 1 hr, CO2H form, read-out: Percent Inhibition), 49%. Further, the inhibition in vivo at 16.6 mg/kg in assay [2] (16.6 mg/kg p.o.) is 54%. In addition, the inhibition in vivo at 30 mg/kg was 66% in assay [2]; 60% in assay [3] (Rattus norvegicus, ip, 3 h, 30 mg/kg i.p., 10% Solutol, pretreatment 3 hr, CO2H form, read-out: Percent Inhibition); 46% in assay [3] (setting [6]). For the same compound, the inhibition in vivo at 100 mg/kg in assay [2] (100 mg/kg p.o.) came out at 52%; in assay [3] (Rattus norvegicus, po, 1 h, 100 mg/kg p.o., 10% Solutol, pretreatment 1 hr, CO2H form, read-out: Percent Inhibition) it was 70%.

As for `O=S(=O)(c1cccnc1)N(Cc1ccc(F)c(C(F)(F)F)c1)c1sc2ccccc2c1Br` [Compound 188, N-(3-Bromo-benzo[b]thiophen-2-yl)-N-(4-fluoro-3-trifluoromethyl-benzyl)-pyridin-3-yl-sulfonamide], the IC50 in assay [1] was determined as 12.2 nM. Besides, the inhibition at 0.2 µM in assay [1] (setting [7]) stood at 99%. Besides, the inhibition at 0.5 µM in assay [1] (setting [5]) amounted to 101%. The inhibition in vivo at 30 mg/kg in assay [2] is 7%.

`CC(C)(O)c1c(N(CCC(F)(F)F)S(=O)(=O)c2ccc(C(=O)[O-])cc2)sc2ccccc12.[Na+]` [Compound 505, Sodium, N-(3-(1-Hydroxy-1-methyl-ethyl)-benzo[b]thiophen-2-yl)-N-(3,3,3-trifluoro-propyl)-4-carboxy-benzenesulfonamide]: the IC50 in assay [1] was found to be 24 nM. The “% Inh @ 0.2 (μM)” value in assay [1] (setting [7]) was 98%. For the same compound, the “% Inhibition” value in assay [4] worked out at 72%. Moreover, in assay [3] (30 mg/kg p.o., HPbCD, pretreatment 1 hr, Na salt form), the “Percent Inhibition” value amounted to 11%.
